Measurements as given in patent US20170029841A1, “METHODS AND COMPOSITIONS FOR SELECTIVE REGULATION OF PROTEIN EXPRESSION” (priority 2015, published 2017).

Tested on: maize tissue pools (tassel, ear, leaf, root, stem)
Assay: siRNA profiling microarray assay of mts-siRNA sequences across maize tissues
Settings: for 01DKD2 V8-V9 Tassel relative signal value: germplasm 01DKD2, V8-V9 tassel; for 01DKD2 V10-V12 Tassel relative signal value: germplasm 01DKD2, V10-V12 tassel; for 01DKD2 Other Tissue relative signal value: germplasm 01DKD2, combined signals from other tissue; for LH244 V8-V9 Tassel relative signal value: germplasm LH244, V8-V9 tassel; for LH244 V10-V12 Tassel relative signal value: germplasm LH244, V10-V12 tassel; for LH244 Other Tissue relative signal value: germplasm LH244, combined signals from other tissue
Protocol: A siRNA profiling microarray assay was performed using μParaflo® Microfluidics chips provided by LC Sciences LLC (Houston, Tex., USA) with 1,200 sequences selected from the thousands of mts-siRNA sequences identified from the differential bioinformatic analysis. The microarray chips contained triplicate probes of the complementary sequence for each of the 1,200 mts-siRNA sequences. Total RNA was purified from 26 maize tissue pools (duplicate or triplicate tissue pools) from either LH244 (ATCC deposit number PTA-1173) or 01DKD2 (I294213) (ATCC deposit number PTA-7859) inbred plants. Each of the 26 RNA samples were hybridized with the microarray chips that contain probes for the 1,200 mts-siRNA. Hybridization images were collected using a GenePix® 4000B laser scanner (Molecular Devices, Sunnyvale, Calif.) and digitized using Array-Pro® Analyzer image analysis software (Media Cybernetics, Rockville, Md.). Relative signal values were derived by background subtraction and normalization. Differentially expressed signals were determined by t-test with p<0.05. From the microarray analysis, about 500 mts-siRNA from the 1,200 were identified as being highly tassel-specific.
Selected mts-siRNA sequences aligning to one of the six cDNA sequences were used for further microarray analysis to determine differential expression across maize tissues. Microarray analysis for mts-siRNA sequences of normalized signal values for V8-V9 tassel, V10-V12 tassel, or combined signals from the other tissue for maize germplasm LH244 and 01DKD2 is presented in Tables 3-10. […] Signal value results are measured as relative signal values and standard error (p<0.05) is represented by (STDR). […] The mts-siRNA sequence corresponds to the sense or antisense strand of the corresponding mts-siRNA target sequence in the cDNA sequence. The mts-siRNA sequence may have a single nucleotide, a two nucleotide, or a three nucleotide mismatch with the aligned portion of the cDNA sequence, and the mts-siRNA sequence may align to the sense strand or antisense strand of the cDNA sequence. The mts-siRNA sequences provided here are found across different maize germplasms.

| Substance | 01DKD2 V8-V9 Tassel relative signal value | 01DKD2 V10-V12 Tassel relative signal value | 01DKD2 Other Tissue relative signal value | LH244 V8-V9 Tassel relative signal value | LH244 V10-V12 Tassel relative signal value | LH244 Other Tissue relative signal value |
| --- | --- | --- | --- | --- | --- | --- |
| SEQ ID NO: 77: mts-siRNA sequence aligning to cDNA SEQ ID NO: 22 (AAGGCAAGAAGGTGCTTGTTGTC; expressed or natural sequence) | 0.5 | 225 | 2.5 | 180.5 | 302.7 | 4.1 |
| SEQ ID NO: 31: mts-siRNA sequence aligning to cDNA SEQ ID NO: 17 (ACACGCATGTCACATCGCCGTC; expressed or natural sequence) | 0 | 26.5 | 2.8 | 8 | 49 | 1.2 |
| SEQ ID NO: 37: mts-siRNA sequence aligning to cDNA SEQ ID NO: 18 (CAGAGGATGGCGATATGCACGTTG; expressed or natural sequence) | 9.5 | 1224.5 | 3.3 | 554 | 553 | 1.5 |
| SEQ ID NO: 29: mts-siRNA sequence aligning to cDNA SEQ ID NO: 17 (CCGTGCATGGTGATGAATCC; expressed or natural sequence) | 86 | 535.5 | 4 | 292.5 | 886.7 | 2.2 |
| SEQ ID NO: 36: mts-siRNA sequence aligning to cDNA SEQ ID NO: 18 (CGTGCATATCGCCATCCTCTGCT; expressed or natural sequence) | 15.5 | 1225.5 | 4.3 | 906.5 | 606.7 | 2.2 |
| SEQ ID NO: 44: mts-siRNA sequence aligning to cDNA SEQ ID NO: 19 (TTGGCGTGAAAGCTCGAGTGCTCC; expressed or natural sequence) | 15.5 | 1443.5 | 6.3 | 756 | 1340 | 1.8 |
| SEQ ID NO: 49: mts-siRNA sequence aligning to cDNA SEQ ID NO: 19 (TACTACTACTCCCTTCTCGG; expressed or natural sequence) | 57.5 | 867 | 55.3 | 340 | 1241.7 | 16.3 |
| SEQ ID NO: 58: mts-siRNA sequence aligning to cDNA SEQ ID NO: 20 (CGAGGTACCAACTAACATCGGT; expressed or natural sequence) | 88.5 | 327 | 2 | 215.5 | 349 | 0.7 |
| SEQ ID NO: 52: mts-siRNA sequence aligning to cDNA SEQ ID NO: 19 (CTGATATCTATGCTAATTCAGG; expressed or natural sequence) | 234 | 3286.5 | 3.5 | 4080 | 3629.7 | 5.5 |
| SEQ ID NO: 34: mts-siRNA sequence aligning to cDNA SEQ ID NO: 18 (ACGTGCATATCGCCATCCTCTGCT; expressed or natural sequence) | 8.5 | 982 | 3.5 | 848.5 | 572.7 | 3 |
| SEQ ID NO: 24: mts-siRNA sequence aligning to cDNA SEQ ID NO: 17 (ATCACCATGCACGGTCGT; expressed or natural sequence) | 16 | 174 | 3 | 104.5 | 322 | 7.7 |
| SEQ ID NO: 74: mts-siRNA sequence aligning to cDNA SEQ ID NO: 22 (AGGCCTCCCTTCCCTATG; expressed or natural sequence) | 43.5 | 171 | 45.8 | 83.5 | 129 | 164.2 |
| SEQ ID NO: 66: mts-siRNA sequence aligning to cDNA SEQ ID NO: 21 (TGGTCATACACTAGATAGGGC; expressed or natural sequence) | 61 | 55.5 | 2.8 | 199.5 | 48 | 1.9 |
| SEQ ID NO: 71: mts-siRNA sequence aligning to cDNA SEQ ID NO: 22 (AGCTATCGATTCCCTAAGTGCCA; expressed or natural sequence) | 46 | 1943.5 | 2.3 | 1125.5 | 2380 | 1.6 |
| SEQ ID NO: 43: mts-siRNA sequence aligning to cDNA SEQ ID NO: 19 (AGCACTCGAGCTTTCACGCCAACA; expressed or natural sequence) | 4 | 190.5 | 4.3 | 52.5 | 147.3 | 1 |
| SEQ ID NO: 28: mts-siRNA sequence aligning to cDNA SEQ ID NO: 17 (GACATTTGCAGTTCTATGGTGT; expressed or natural sequence) | 29 | 134.5 | 3.8 | 126.5 | 248 | 2.4 |
| SEQ ID NO: 51: mts-siRNA sequence aligning to cDNA SEQ ID NO: 19 (TGCCGAAGTGTGTCGTGACATTGG; expressed or natural sequence) | 24.5 | 275.5 | 40 | 158 | 287 | 34.3 |
